Consider one compound from article PMC12406258, “Uncovering the Unusual Inhibition Mechanism of a Trypanosome Alternative Oxidase Inhibitor Displaying Broad-Spectrum Activity against African Animal Trypanosomes” (Journal of Medicinal Chemistry, 2025).

One experiment deals with T. evansi WT. Briefly: Resazurin-based drug sensitivity assay, T. evansi WT. It is filed as cell-based. The protocol:
(§1) Other Trypanosoma species used in this study include T. evansi AntTat 3/3 (Wild-type); and T. equiperdum BoTat 1 (Bordeaux trypanozoon antigenic type 1) P (wild-type). All the trypanosomes were used only as bloodstream trypomastigotes and cultured in the standard Hirumi’s Modified Iscove’s medium #9 (HMI-9), supplemented with 10% heat-inactivated Fetal Bovine Serum (FBS), 14 μL/L β-mercaptoethanol, and 3.0 g sodium hydrogen carbonate per liter of medium (pH 7.4). Trypanosomes were cultured in vented flasks at 37 °C in a 5% CO2 atmosphere.
(§2) Briefly, this protocol involves preparing a 96-well cell culture plate with a 100 μL serially diluted test compound (200 μM top concentration) in HMI-9 + 10% FBS (24 wells per control drug or test compound, with the 24th well serving as drug-free). This is followed by adjusting the cell density of mid-log-phase trypanosome cultures to the required concentration of 2 × 10^5 cells/mL (2 × 10^4 cells/well). […] All incubations were carried out at 37 °C with 5% CO2. […] EC50 values were calculated using GraphPad Prism 9.0 software via nonlinear regression with an equation for a sigmoidal dose–response curve with variable slope (GraphPad Software Inc., San Diego, CA, USA).
(The colour change of resazurin is a common sign of viable cells or microbes.)

The next experiment concerns T. b. brucei SUR10. Briefly: microbe, parasite or virus in culture. It is filed as cell-based. The settings on record: Trypanosoma brucei, read-out: SUR10 EC50.
For experiment [1], the target named is T1, recombinant TAO (ΔMTS rTAO) (Trypanosoma brucei brucei, UniProt Q26710).
T1 construct: […]; SUMO (Small Ubiquitin-related Modifier) fusion from the expression system; made in house
Briefly: Inhibition of ubiquinol oxidase activity of purified recombinant TAO. It is filed as biochemical, T. brucei. The protocol:
This physiologically relevant rTAO enzyme was used throughout this work and in this experiment to study the inhibitory activity of 1.
As previously described, the Ubiquinol oxidase activity measurement was carried out using recombinant TAO lacking the mitochondrial targeting signal (ΔMTS). […] The reaction was carried out in a 1 cm cuvette for 2 min using a V-630 Jasco UV–vis spectrophotometer (Jasco Corporation, Tokyo, Japan). Briefly, the procedure involves preincubating 250 ng of the enzyme for 2 min in a 50 mM Tris-HCl (pH 7.3) buffer containing the detergent octaethylene glycol monododecylether (0.05% (w/v)) in a total reaction volume of 1 mL at 25 °C. […] For the inhibition reaction, 250 ng of the enzyme was preincubated with varying inhibitor concentrations for 2 min using the same buffer before the substrate was added. […] This was achieved using the same protocol but without TAO. […] The residual activities were plotted against the corresponding inhibitor concentration in a GraphPad Prism-9 software to obtain the IC50 value.

For the next experiment, the system named is T. brucei B48. Briefly: microbe, parasite or virus in culture. It is filed as cell-based, T. b. brucei. The settings on record: Trypanosoma brucei, read-out: T. brucei B48 EC50. As for the experimental part: as §1, §2
The subject of another experiment is T. brucei aqp1-3 null. Briefly: microbe, parasite or virus in culture. It is filed as cell-based, T. b. brucei. The settings on record: Trypanosoma brucei, read-out: aqp1-3 null EC50. The protocol: as §1, §2
In another experiment the test system is T. brucei wild type s427. Briefly: Growth curve of T. brucei s427, continuous or 24 h limited exposure. The settings on record: 2 × and 5 × EC50. It is filed as cell-based. The protocol:
The results in Figure , which show the growth curve of T. brucei wild type s427 grown in the continuous presence or after a limited exposure (24 h) to 1, indicate that the growth pattern of cells with long-time exposure was similar to that of cells with limited exposure to 1. The compound seemed to rapidly induce an apparent growth inhibition, after approximately 4h, followed by a steep decline in population from 30 h. […] Thus, the effects of 1 on trypanosomes are irreversible before population decline begins.
2 Growth curve of T. brucei wild type s427 grown in either the continuous presence of 1 at indicated concentrations (filled symbols) or with the drug washed out with fresh media after 24 h (open symbols; the arrows indicate the time when compound 1 was withdrawn), or untreated (no drug control). The results presented are those of three biological repeats. Error bars represent SD of the biological replicates.

The subject of another experiment is T. congolense WT. Briefly: Drug sensitivity assay, T. congolense WT bloodstream forms. The settings on record: Trypanosoma congolense. It is filed as cell-based. The protocol:
The susceptibilities of trypanosomes to compound 1 were determined as previously described using the resazurin (Alamar Blue) assay. Briefly, this protocol involves preparing a 96-well cell culture plate with a 100 μL serially diluted test compound (200 μM top concentration) in HMI-9 + 10% FBS (24 wells per control drug or test compound, with the 24th well serving as drug-free). This is followed by adjusting the cell density of mid-log-phase trypanosome cultures to the required concentration of 2 × 10^5 cells/mL (2 × 10^4 cells/well). Then, 100 μL of the adjusted cell density/culture was added to all 24 wells in the plate, then incubating trypanosomes and test compound for 48 h followed by the addition of 20 μL filter-sterilized resazurin solution prepared by adding 25 mg resazurin sodium salt to 200 mL filter-sterilized PBS. This was followed by a further 24 h of incubation. All incubations were carried out at 37 °C with 5% CO2. […] Fluorescence was measured in the 96-well plates with a FLUOstar Optima (BMG Labtech, Durham, NC, USA) at wavelengths of 544 nm for excitation, 590 for emission, and a gain of 1250. EC50 values were calculated using GraphPad Prism 9.0 software via nonlinear regression with an equation for a sigmoidal dose–response curve with variable slope (GraphPad Software Inc., San Diego, CA, USA).

T1 sequence (Q26710 26-329, stated change not applied): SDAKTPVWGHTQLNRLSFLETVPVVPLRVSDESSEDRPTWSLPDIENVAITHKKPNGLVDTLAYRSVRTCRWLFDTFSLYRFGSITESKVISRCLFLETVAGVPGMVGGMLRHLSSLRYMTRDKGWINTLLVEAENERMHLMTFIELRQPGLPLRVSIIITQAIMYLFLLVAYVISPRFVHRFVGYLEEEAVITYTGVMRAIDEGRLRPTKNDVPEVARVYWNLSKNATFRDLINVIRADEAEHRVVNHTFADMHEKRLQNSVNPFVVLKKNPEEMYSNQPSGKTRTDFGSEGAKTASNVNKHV

What is called EC50 is the midpoint of the concentration-response curve. By IC50 is commonly meant the midpoint of a concentration-inhibition curve. Regarding `Cc1cc(O)ccc1C(=O)OCCCCCCCCCCCCCC[P+](c1ccccc1)(c1ccccc1)c1ccccn1.[Br-]` [Compound 1, {14-[(4-Hydroxy-2-methylbenzoyl)-oxy]-tetradecyl}-diphenyl(pyridin-2-yl)-Phosphonium Bromide], the EC50 is 1.2 ± 0.1 nM in the experiment on T. evansi WT; 3.6 ± 0.9 nM with T. b. brucei SUR10; 2.5 ± 0.1 nM in the experiment on T. brucei B48; 1.2 ± 0.13 nM with T. brucei aqp1-3 null; 41 ± 7 nM in the experiment with T. congolense WT. For the same compound, the IC50 in experiment [1] turned out to be 1.3 ± 0.07 nM. The “Time from which population steeply declines” value in the experiment on T. brucei wild type s427 is at least 30 h. Moreover, in the experiment with T. brucei wild type s427, the “Time to apparent growth inhibition” value is listed as “approximately 4 h”.
